According to US8349851B2, “JAK kinase modulating compounds and methods of use thereof” (Ambit Biosciences Corp., priority 2009, dated 2013):
Like-named read-outs stand apart in the source and are kept apart here.

Tests used:
[1] = molecular target: T1, JAK3 (Homo sapiens, UniProt P52333); experiment: Competition binding assay, JAK3; conditions: read-out: Binding Assay: JAK3 (active_KD, ENZ)
T1 construct: made in house
Summary of the method: (§1)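 JAK2 and JAK3 were each tested individually as T7 phage fusions or HEK-293-expressed DNA-tagged kinases, competing with compound for bead-immobilized biotinylated ligand. Eluted kinase was measured by quantitative PCR. Kd values came from eleven serial threefold dilutions.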

[2] = molecular target: T2, JAK2 (Homo sapiens, UniProt O60674); experiment: Competition binding assay, JAK2; conditions: read-out: Binding Assay: JAK2 (active_KD)
T2 construct: made in house
Summary of the method: as §1

[3] = molecular target: T3, AuroraB (Homo sapiens, UniProt Q96GD4); experiment: Competition binding assay, Aurora B
T3 construct: made in house
Description: Methods for determining binding constant against Aurora B kinase are known to one of skill in the art. Exemplary methods are described in U.S. provisional application No. 61/294,413, and Fabian et al., Nature Biotechnology 2005, 23,329-336.
Competition binding assays used herein were developed, validated and performed as described in Fabian et al., Nature Biotechnology 2005, 23,329-336. Kinases were produced as fusions to T7 phage (See, Fabian et al. or WO04/015142) or alternatively, the kinases were expressed in HEK-293 cells and subsequently tagged with DNA for PCR detection (See, WO08/005310). For the binding assays, streptavidin-coated magnetic beads were treated with biotinylated affinity ligands for 30 min at rt to generate affinity resins. The liganded beads were blocked with excess biotin and washed with blocking buffer (SeaBlock (Pierce), 1% BSA, 0.05% Tween 20, 1 mM DTT) to remove unbound ligand and to reduce non-specific binding. […] Test compounds were prepared as 100× stocks in DMSO and rapidly diluted into the aqueous environment. DMSO was added to control assays lacking a test compound. Primary screen interactions were performed in polypropylene 384-well plates in a final volume of 34 μL, while Kd determinations were performed in polystyrene 96-well plates in a final volume of 135 μL. […] The kinase concentration in the eluates was measured by quantitative PCR. Each kinase was tested individually against each compound. Kds were determined using eleven serial threefold dilutions. A selectivity score, which is a quantitative measure of selectivity of a compound against a panel of enzymes, may be calculated for a compound by dividing the number of enzymes for which a compound meets a set criteria, (for example, a binding constant of 100 nM or less), by the total number of enzymes tested.

[4] = system: csTF-1 cells (GM-CSFR/JAK2/STAT5 pathway); experiment: csTF-1 cell-based reporter assay; set-up: species or system human; conditions: GM-CSF at 2 ng/mL, 4 hours, read-out: Cell Assay: CS0017: CS TF-1 reporter assay: IC50
Summary of the method: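 GM-CSF-dependent human csTF-1 cells with STAT5-driven beta-lactamase reporter (irf1 element), 2×10^5 cells/well, given serial compound dilutions plus 2 ng/mL GM-CSF in 0.5% DMSO for 4 hours at 30° C. Substrate added 2 h at room temperature; blue (460 nm)/green (530 nm) fluorescence read at 409 nm excitation.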

[5] = system: HEL 92.1.7 cells; experiment: In vivo efficacy study in the mouse HELV617F liquid tumor model (survival); conditions: CB17 SCID mice, PO BID, 21 day dosing; Ambit Internal Compound 50 or 60 mg/kg, compound of Formula I 60 mg/kg, TGEN101348 120 mg/kg
Protocol: In Vivo Efficacy Study in the Mouse HELV617F Liquid Tumor Mouse Model
This study was conducted to determine the effect of a selected compound of Formula I on tumor progression and survival. CB 17 SCID mice (Charles River Labs) were pretreated with cyclophosphamide IP QD at 150 mg/kg for two consecutive days before being injected with cells. On Day 0, 75 mice were inoculated IV with 5e6 HEL 92.1.7 cells suspended in sterile saline. Animals were weighed on Day 8, and assigned to groups with similar mean body weights and similar standard deviations from the mean. Animals were dosed on Day 8 for a 21 day dosing period. Treatment groups were as follows (10 animals per group): First group was administered vehicle (Pharmatek #6), PO, BID; a second group was administered Ambit Internal Compound A prepared in Pharmatek #6, at 50 mg/kg PO, BID; and a third group was administered TGEN101348 prepared in Pharmatek #6, at 120 mg/kg PO, BID. An untreated group of 10 animals also served as control.
Another study was conducted using the same protocol, with the same controls and the following treatment groups: Ambit Internal Compound A prepared in Pharmatek #6 administered at 60 mg/kg BID and a selected compound of Formula I prepared in Pharmatek #6 at 60 mg/kg BID.

[6] = system: TEL-JAK cells; experiment: In vivo efficacy study in the mouse TELJAK model (survival); conditions: CB17 SCID mice, BID for two weeks; Ambit Internal Compound 50 mg/kg BID, TGEN101348 100 mg/kg BID
Protocol: In Vivo Efficacy Study in the Mouse TELJAK Mouse Model
This study was conducted to determine the effect of a selected compound of Formula I on tumor progression and survival. CB17 SCID mice (Harlan Laboratories) were inoculated with 5e5 TEL-JAK cells via tail vein on day 0. Cells were allowed to establish in the animal, and on day 3, dosing was initiated as follows: Vehicle (Pharmatek #6) administered 50 uL at BID to a first group, Ambit Internal Compound prepared in Pharmatek #6 and administered at 50 mg/kg BID to a second group and TGEN101348 prepared in Pharmatek #6 to a third group at 100 mg/kg BID. Each treatment group (16 animals per group) received a twice daily dosing for a two week period. An untreated group of 10 animals also served as control.
A second study was conducted using the same protocol, with the same controls and the following treatment groups: Ambit Internal Compound A prepared in Pharmatek #6 administered at 60 mg/kg BID and a selected compound of Formula I prepared in Pharmatek #6 at 60 mg/kg BID.

T3 sequence (Q96GD4 whole entry): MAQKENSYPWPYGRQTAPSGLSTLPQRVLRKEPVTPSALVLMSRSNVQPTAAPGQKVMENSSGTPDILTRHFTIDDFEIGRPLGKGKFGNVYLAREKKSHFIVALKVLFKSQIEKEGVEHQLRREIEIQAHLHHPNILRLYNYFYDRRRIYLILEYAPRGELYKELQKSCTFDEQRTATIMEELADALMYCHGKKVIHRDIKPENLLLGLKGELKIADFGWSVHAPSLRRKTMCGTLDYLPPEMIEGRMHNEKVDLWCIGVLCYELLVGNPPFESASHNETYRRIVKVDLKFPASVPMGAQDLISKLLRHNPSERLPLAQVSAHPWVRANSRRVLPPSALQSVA
T2 sequence (O60674 849-1124 limits assumed): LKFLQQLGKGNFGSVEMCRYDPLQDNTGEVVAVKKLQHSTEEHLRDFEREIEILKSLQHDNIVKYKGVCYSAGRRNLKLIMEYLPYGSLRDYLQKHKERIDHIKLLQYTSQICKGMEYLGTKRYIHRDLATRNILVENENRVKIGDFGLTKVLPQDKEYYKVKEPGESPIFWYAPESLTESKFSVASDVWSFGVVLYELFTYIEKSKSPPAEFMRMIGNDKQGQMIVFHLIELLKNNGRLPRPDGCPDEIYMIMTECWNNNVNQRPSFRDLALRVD
T1 sequence (P52333 822-1111 limits assumed): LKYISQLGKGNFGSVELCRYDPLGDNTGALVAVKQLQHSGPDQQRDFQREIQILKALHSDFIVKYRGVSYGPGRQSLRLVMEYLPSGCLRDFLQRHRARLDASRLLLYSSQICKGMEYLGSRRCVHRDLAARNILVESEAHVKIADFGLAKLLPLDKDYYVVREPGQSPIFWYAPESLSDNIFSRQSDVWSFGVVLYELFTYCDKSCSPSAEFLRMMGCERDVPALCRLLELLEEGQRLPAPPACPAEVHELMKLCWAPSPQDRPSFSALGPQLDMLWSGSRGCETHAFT

| Compound | Kd [1] | Kd [2] | Kd [3] | IC50 ([4]; Homo sapiens) | IC50 [4] | increased life span (ILS) [5] | increased life span (ILS) [6] |
| --- | --- | --- | --- | --- | --- | --- | --- |
| Cc1cc(Nc2nc(C(=O)c3ccc(F)cc3)nc3cc(O)ccc23)n[nH]1 [Example 37, (4-fluorophenyl)(7-hydroxy-4-(5-methyl-1H-pyrazol-3-ylamino)quinazolin-2-yl)methanone] | 10 to 100 nM | ≤ 1 nM | > 200 nM | ≤ 100 nM | – | – | – |
| Cc1cc(Nc2nc(C(O)c3ccc(F)cc3)nc3cc(OC4CCNCC4)ccc23)n[nH]1 (centres unmarked) [Example 41, (4-fluorophenyl)(4-(5-methyl-1H-pyrazol-3-ylamino)-7-(piperidin-4-yloxy)quinazolin-2-yl)methanol] | ≤ 10 nM | ≤ 1 nM | > 200 nM | 100 to 500 nM | – | – | – |
| Cc1cc(Nc2nc(C(F)(F)c3ccc(F)cc3)nc3cc(CS(C)(=O)=O)ccc23)n[nH]1 [Example 50, 2-(difluoro(4-fluorophenyl)methyl)-N-(5-methyl-1H-pyrazol-3-yl)-7-(methylsulfonylmethyl)quinazolin-4-amine] | ≤ 10 nM | ≤ 1 nM | > 200 nM | ≤ 100 nM | – | – | – |
| Cc1cnc(Nc2ccc(OCCN3CCCC3)cc2)nc1Nc1cccc(S(=O)(=O)NC(C)(C)C)c1 [TGEN101348] | – | – | – | – | – | approximately 5% | 30% |
| (4-(1H-pyrazol-3-ylamino)quinazolin-2-yl)bis(4-fluorophenyl)methanol [Example 48] | > 100 nM | > 10 nM | > 200 nM | – | > 500 nM | – | – |

Second part, led by results:

| Kd [1] | Kd [2] | Kd [3] | IC50 ([4]; Homo sapiens) | IC50 [4] | Compound | increased life span (ILS) [5] | increased life span (ILS) [6] |
| --- | --- | --- | --- | --- | --- | --- | --- |
| ≤ 10 nM | ≤ 1 nM | 50 to 200 nM | ≤ 100 nM | – | CCOCc1ccc2c(Nc3cc(C)[nH]n3)nc(C(F)(F)c3ccc(F)cc3)nc2c1 [Example 51, 2-(Difluoro(4-fluorophenyl)methyl)-7-(ethoxymethyl)-N-(5-methyl-1H-pyrazol-3-yl)quinazolin-4-amine] | – | – |
| > 100 nM | > 10 nM | > 200 nM | > 500 nM | – | Cc1cc(Nc2nc(C(O)(c3ccc(F)cc3)c3ccc(F)cc3)nc3ccccc23)n[nH]1 [bis-(4-fluoro-phenyl)-[4-(5-methyl-1H-pyrazol-3-ylamino)-quinazolin-2-yl]-methanol] | – | – |
